SMILES strings stand for the structures.

We go through one compound from paper PMC3466270 (PLoS ONE, 2012).

For this assay, the target named is RSL lectin (fucose binding lectin RSL) (Ralstonia pseudosolanacearum, UniProt Q8XXK6). As to the kind of experiment: biochemical.

As for `CO[C@@H]1O[C@@H](C)[C@@H](O)[C@@H](O)[C@@H]1O` [α-L-Me-fucoside], binding was characterised by a dissociation constant (Kd) of 600 nM.
